Reference: US10869478B2, “Uses of 2-(2,4-dichlorophenyl)methyl-4,4-dimethyl-3-isoxazolidone as foliar herbicide” (Bayer CropScience Aktiengesellschaft, priority 2015, dated 2020)

How the values were obtained:
Assay type in all cases: in vivo
Centaurea cyanus = experiment: Post-emergence field trial, herbicidal effect; details: post emergence application GS18, field trial
Protocol: (§1) The experiments were conducted as post applied field trials with plot sizes of 11.25-15 qm, an application volume of 250-300 liter water per hectare and two to three repetitions. Seeds of different crops and various monocot and dicot weeds were either sown or the monocot and dicot weeds were grown naturally and established under common field conditions. The evaluation 13-46 days after application was assessed visually. Treated plants were compared to untreated plants (0-100% scale). In the tables below, GS (growth stage) corresponds to BBCH-code (see for reference Lancashire, P. D.; H. Bleiholder; P. Langeluddecke; R. Stauss; T van den Boom; E. Weber; A. Witzen-Berger (1991). “A uniform decimal code for growth stages of crops and weeds”: Ann. Appl. Biol. 119 (3): 561-601; or Witzenberger, A.; H. Hack; T van den Boom (1989): “Erläuterungen zum BBCH-Dezimal-Code für die Entwicklungsstadien des Getreides—mit Abbildungen”. Gesunde pflanzen 41: 384-388; or Zadoks, J. C., Chang, T T & Konzak, C. F. (1974): A decimal code for the growth stages of cereals. Weed Research 14, 415421)
(§2) The generated values from applications alone and in combination were used to evaluate the combinatorial effects according to S. R. Colby, Weeds 15, pages 20 to 22 (1967).
(§3) The abbreviations have the following meaning: • a.i.=active ingredient • E=Observed combination effect value • EC=Calculated combination effect value according to Colby (EC=A+B−A×B/100) • Diff:=Difference (%) between observed and expected combination effect value (%) (observed minus expected value)

Galium aparine = experiment: Post-emergence field trial, herbicidal effect; details: post emergence application GS23, field trial
Protocol: as §1, §2, §3

Triticum aestivum = details: 200 g a.i./ha
Protocol: as §1, §2, §3

Hordeum vulgare = details: Table 2; post emergence application GS29, field trial; 200 g a.i./ha; visual, 0-100% scale vs untreated
Protocol: as §1, §2, §3

Papaver rhoeas = experiment: Post-emergence field trial, herbicidal effect; details: Table 8; post emergence application GS18, field trial; 50 g a.i./ha
Protocol: as §1, §2, §3

SMILES: Nc1c(Cl)c(F)nc(OCC(=O)O)c1Cl [fluroxypyr, reference compound]
- Efficacy [%] against Centaurea cyanus (Centaurea cyanus; Table 5, 150 g a.i./ha): 30%

SMILES: O=C(Nc1ccc(F)cc1F)c1cccnc1Oc1cccc(C(F)(F)F)c1 [diflufenican, reference compound]
- Efficacy [%] against Centaurea cyanus (Centaurea cyanus; Table 6, 75 g a.i./ha): 0%

SMILES: CCCCCCCC(=O)Oc1c(Br)cc(C#N)cc1Br [bromoxynil AS octanoate, reference compound]
- Efficacy [%] against Galium aparine (Galium aparine; Table 7, 175 g a.i./ha): 10%

SMILES: Nc1c([N+](=O)[O-])ccc(Oc2ccccc2)c1Cl [aclonifen, reference compound]
- Efficacy [%] against Centaurea cyanus (Centaurea cyanus; Table 9, 450 g a.i./ha): 0%

SMILES: CC1(C)CON(Cc2ccc(Cl)cc2Cl)C1=O [COMPOUND I, 2-(2,4-dichlorophenyl)methyl-4,4-dimethyl-3-isoxazolidone]
- Efficacy/selectivity [%] against Triticum aestivum (Triticum aestivum; Table 1, post emergence application GS30, field trial, visual, 0-100% scale vs untreated): 30%
- Efficacy/selectivty [%] against Triticum aestivum (Triticum aestivum; Table 3, post emergence application GS29, field trial): 18%
- Efficacy/selectivity [%] against Hordeum vulgare (Hordeum vulgare): 32%
- Efficacy [%] against Centaurea cyanus (Centaurea cyanus; Table 5, 50 g a.i./ha): 25%
- Efficacy [%] against Centaurea cyanus (Centaurea cyanus; Table 6, 50 g a.i./ha): 25%
- Efficacy [%] against Centaurea cyanus (Centaurea cyanus; Table 9, 100 g a.i./ha): 75%
- Efficacy [%] against Papaver rhoeas (Papaver rhoeas): 0%
- Efficacy [%] against Galium aparine (Galium aparine; Table 4, 100 g a.i./ha): 25%
- Efficacy [%] against Galium aparine (Galium aparine; Table 7, 100 g a.i./ha): 0%

SMILES: CSc1nnc(C(C)(C)C)c(=O)n1N [metribuzin, reference compound]
- Efficacy [%] against Papaver rhoeas (Papaver rhoeas): 0%
